In patent publication US20050049186A1, “Peptides mimicking the biological activity of steroid hormones and their uses” (priority 2000, published 2005):
Like-named read-outs stand apart in the source and are kept apart here. Peptide text beside a SMILES is read from it.

Legend:
[1] = biological target: T1, ER α (Homo sapiens, UniProt P03372); assay: Receptor binding assay for estrogen receptor alpha; conditions: for recognition of / binding activity to estrogen receptor α: summary of Tables 3 to 5
T1 sequence (P03372 1-595): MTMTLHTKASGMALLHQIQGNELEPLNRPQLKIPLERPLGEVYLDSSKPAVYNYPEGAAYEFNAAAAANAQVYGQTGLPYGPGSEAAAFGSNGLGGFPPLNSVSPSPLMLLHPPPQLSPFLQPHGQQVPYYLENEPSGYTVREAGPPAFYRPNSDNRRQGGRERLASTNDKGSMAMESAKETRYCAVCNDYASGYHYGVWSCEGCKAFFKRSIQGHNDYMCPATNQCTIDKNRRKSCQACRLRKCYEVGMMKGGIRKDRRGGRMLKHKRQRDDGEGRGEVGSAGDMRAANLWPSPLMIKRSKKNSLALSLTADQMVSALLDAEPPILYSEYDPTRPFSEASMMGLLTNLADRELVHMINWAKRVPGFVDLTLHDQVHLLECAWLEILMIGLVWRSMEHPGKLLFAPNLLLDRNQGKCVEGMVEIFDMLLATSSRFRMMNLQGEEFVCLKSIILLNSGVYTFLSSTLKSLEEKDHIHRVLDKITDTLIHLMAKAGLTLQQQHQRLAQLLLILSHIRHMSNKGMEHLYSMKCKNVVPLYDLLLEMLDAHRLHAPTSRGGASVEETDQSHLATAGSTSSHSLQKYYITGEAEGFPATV

[2] = biological target: ER β (Homo sapiens, UniProt Q92731); assay: Receptor binding assay for estrogen receptor beta; conditions: for IC50 / IC50 to ERβ: Table 5; for IC50: read-out: IC50 to ERβ; for recognition of / binding activity to estrogen receptor β: summary of Tables 3 to 5
ER β, sequence (Q92731 whole entry, species assumed): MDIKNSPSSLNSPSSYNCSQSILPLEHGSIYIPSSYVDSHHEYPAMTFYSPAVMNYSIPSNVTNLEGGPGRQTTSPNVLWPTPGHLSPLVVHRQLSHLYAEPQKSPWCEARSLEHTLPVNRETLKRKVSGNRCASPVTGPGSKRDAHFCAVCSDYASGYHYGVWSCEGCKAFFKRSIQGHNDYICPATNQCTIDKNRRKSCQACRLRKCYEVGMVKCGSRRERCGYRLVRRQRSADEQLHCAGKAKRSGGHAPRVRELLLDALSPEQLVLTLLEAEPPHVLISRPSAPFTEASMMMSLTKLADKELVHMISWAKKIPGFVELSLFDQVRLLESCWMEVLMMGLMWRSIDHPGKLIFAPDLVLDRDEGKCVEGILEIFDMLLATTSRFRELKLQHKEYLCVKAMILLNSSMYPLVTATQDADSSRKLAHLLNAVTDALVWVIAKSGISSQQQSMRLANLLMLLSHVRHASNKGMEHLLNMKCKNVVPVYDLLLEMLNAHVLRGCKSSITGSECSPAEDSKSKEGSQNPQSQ

[3] = biological target: anti-estradiol mAb clone 15; assay: Competitive immunoassay: inhibition of binding of labeled E2 (estradiol ovalbumin europium conjugate) to anti-E2 clone 15; design: species or system mouse; conditions: for IC50: Table 5, estradiol ovalbumin europium conjugate; for inhibition of the binding of estradiol ovalbumin europium conjugate to anti-E2 mAb clone 15 relative to peptides 1 and 2: compared with the linear or cyclic peptides 1 and 2; for inhibition of binding of estradiol ovalbumin europium conjugate to anti-estradiol mAb clone 15: text summary of Table 4
From the text: […]. The linear peptide 1 is 15-amino acid long. We further explored the possibility whether smaller peptides derived from peptide 1 may have antibody binding activity and receptor binding activity. In order to find out the minimum amino acid sequence required in the linear peptide 1 for antibody and receptor binding, several peptides with varying length of from 4 to 14 amino acids long were synthesized, and were first evaluated in terms of binding to anti-estradiol (E2) mAb clone 15. The peptides showing similar or better antibody binding activity than the linear peptide 1 were further evaluated in terms of binding to ERα and β.

[4] = Table 5, read-out: IC50 to ER α

| Compound | IC50 [1, 4] [nM] | IC50 [2] [nM] | IC50 to ER α ([1]; Table 5) | recognition of / binding activity to estrogen receptor α [1] | IC50 to ERβ [2] | recognition of / binding activity to estrogen receptor β [2] | IC50 [3] [nM] | inhibition of the binding of estradiol ovalbumin europium conjugate to anti-E2 mAb clone 15 relative to peptides 1 and 2 [3] | IC50 ([1]; FIG. 2, read-out: IC50, binding to ER α) [nM] | inhibition of binding of estradiol ovalbumin europium conjugate to anti-estradiol mAb clone 15 [3] |
| --- | --- | --- | --- | --- | --- | --- | --- | --- | --- | --- |
| CC(C)[C@H](N)C(=O)N[C@@H](CCCNC(=N)N)C(=O)N[C@@H](Cc1c[nH]c2ccccc12)C(=O)N[C@@H](Cc1ccccc1)C(=O)N[C@@H](Cc1ccccc1)C(=O)N[C@@H](CCC(=O)O)C(=O)O [Peptide 39, VRWFFE] (H-VRWFFE-OH) | < 100000 | < 100000 |  |  |  |  |  |  |  |  |
| NCCCC[C@H](N)C(=O)N[C@@H](CO)C(=O)N[C@@H](Cc1c[nH]c2ccccc12)C(=O)N[C@@H](Cc1ccccc1)C(=O)N[C@@H](Cc1ccccc1)C(=O)N[C@@H](CCC(=O)O)C(=O)O [Peptide 19, KSWFFE] (H-KSWFFE-OH; N-terminus and C-terminus assumed) |  |  | None | did not show any binding activity | None | did not show any binding activity | 40 | one and half order of magnitude better |  |  |
| N=C(N)NCCC[C@H](NC(=O)[C@@H](N)CCCCN)C(=O)N[C@@H](Cc1c[nH]c2ccccc12)C(=O)N[C@@H](Cc1ccccc1)C(=O)N[C@@H](Cc1ccccc1)C(=O)N[C@@H](CCC(=O)O)C(=O)O [Peptide 44, KRWFFE] (H-KRWFFE-OH) | 400000 | 400000 |  | recognized |  | recognized | 35 | one and half order of magnitude better |  |  |
| CC(C)[C@H](N)C(=O)N[C@@H](CO)C(=O)N[C@@H](Cc1c[nH]c2ccccc12)C(=O)N[C@@H](Cc1ccccc1)C(=O)N[C@@H](Cc1ccccc1)C(=O)N[C@@H](CCC(=O)O)C(=O)O [Peptide B34, VSWFFE] (H-VSWFFE-OH) | 250000 | 100000 |  | recognized |  | recognized | 6 | one and half order of magnitude better |  |  |
| WFFE [Peptide 46] |  |  |  | did not show any inhibition |  |  |  |  |  |  |
| CC(C)C[C@@H]1NC(=O)[C@H](C)NC(=O)[C@@H]2CCCN2C(=O)[C@H](CC(C)C)NC(=O)[C@H](CCC(=O)O)NC(=O)[C@H](C)NC(=O)[C@@H](N)CSSC[C@@H](C(=O)O)NC(=O)[C@@H]2CCCN2C(=O)[C@@H]2CCCN2C(=O)[C@@H]2CCCN2C(=O)[C@@H]2CCCN2C(=O)[C@H](CCCCN)NC(=O)[C@H]([C@@H](C)O)NC(=O)[C@H](CCC(=O)O)NC(=O)[C@H](Cc2ccccc2)NC(=O)[C@H](Cc2ccccc2)NC(=O)[C@H](Cc2c[nH]c3ccccc23)NC(=O)[C@H](CCCNC(=N)N)NC(=O)[C@H](CCCCN)NC(=O)[C@H]([C@@H](C)O)NC(=O)[C@@H]2CCCN2C(=O)[C@H](CC(=O)O)NC1=O [Peptide 2] (HELM PEPTIDE1{C.A.E.L.P.A.L.D.P.T.K.R.W.F.F.E.T.K.P.P.P.P.C}$PEPTIDE1,PEPTIDE1,1:R3-23:R3$$$V2.0; N-terminus and C-terminus assumed) |  |  |  |  | none |  |  |  | 100000 |  |
| CC(C)[C@H](N)C(=O)N[C@@H](CCCNC(=N)N)C(=O)N[C@@H](Cc1c[nH]c2ccccc12)C(=O)N[C@@H](Cc1ccccc1)C(=O)N[C@@H](Cc1ccc(O)cc1)C(=O)N[C@@H](CCC(=O)O)C(=O)O [Peptide B35, VRWFYE] (H-VRWFYE-OH; N-terminus and C-terminus assumed) |  |  | None | did not show any binding activity | None | did not show any binding activity | 6 | one and half order of magnitude better |  |  |
| C[C@H](NC(=O)[C@@H](N)CCCCN)C(=O)N[C@@H](Cc1c[nH]c2ccccc12)C(=O)N[C@@H](Cc1ccccc1)C(=O)N[C@@H](Cc1ccccc1)C(=O)N[C@@H](CCC(=O)O)C(=O)O [Peptide A-44, KAWFFE] (H-KAWFFE-OH) | 250000 | 250000 |  | recognized |  | recognized | 40 | one and half order of magnitude better |  | showed inhibition |
| CC[C@H](C)[C@H](N)C(=O)N[C@@H](CCCNC(=N)N)C(=O)N[C@@H](Cc1c[nH]c2ccccc12)C(=O)N[C@@H](Cc1ccccc1)C(=O)N[C@@H](Cc1ccccc1)C(=O)N[C@@H](CCC(=O)O)C(=O)O [Peptide B37, IRWFFE] (H-IRWFFE-OH) |  | 250000 | None |  |  | recognized only the ERβ | 20 | one and half order of magnitude better |  |  |
| CC(C)C[C@H](N)C(=O)N[C@@H](CCCNC(=N)N)C(=O)N[C@@H](Cc1c[nH]c2ccccc12)C(=O)N[C@@H](Cc1ccccc1)C(=O)N[C@@H](Cc1ccccc1)C(=O)N[C@@H](CCC(=O)O)C(=O)O [Peptide B38, LRWFFE] (H-LRWFFE-OH; N-terminus and C-terminus assumed) |  |  | None | did not show any binding activity | None | did not show any binding activity | 40 | one and half order of magnitude better |  |  |
| CC(C)[C@H](N)C(=O)N1CCC[C@H]1C(=O)N[C@@H](Cc1c[nH]c2ccccc12)C(=O)N[C@@H](Cc1ccccc1)C(=O)N[C@@H](Cc1ccccc1)C(=O)N[C@@H](CCC(=O)O)C(=O)O [Peptide B33, VPWFFE] (H-VPWFFE-OH; N-terminus and C-terminus assumed) |  |  | None | did not show any binding activity | None | did not show any binding activity | 6 | one and half order of magnitude better |  |  |
| C[C@H](N)C(=O)N[C@@H](CCCNC(=N)N)C(=O)N[C@@H](Cc1c[nH]c2ccccc12)C(=O)N[C@@H](Cc1ccccc1)C(=O)N[C@@H](Cc1ccccc1)C(=O)N[C@@H](CCC(=O)O)C(=O)O [Peptide A-43, ARWFFE] (H-ARWFFE-OH) |  |  |  | recognized only the estrogen receptor α | None | not β | 40 | one and half order of magnitude better |  | showed inhibition |
| NCCCC[C@H](N)C(=O)N1CCC[C@H]1C(=O)N[C@@H](Cc1c[nH]c2ccccc12)C(=O)N[C@@H](Cc1ccccc1)C(=O)N[C@@H](Cc1ccccc1)C(=O)N[C@@H](CCC(=O)O)C(=O)O [Peptide 21, KPWFFE] (H-KPWFFE-OH) |  | > 500000 |  | recognized |  | recognized | 45 | one and half order of magnitude better |  |  |
